Data: patent publication US9102684B2, “Indolinone analogues” (Boehringer Ingelheim International GmbH, priority 2013, dated 2015)

The molecules below were run against T1, BRD4 (Homo sapiens, UniProt O60885) (assay: BRD4-H4 tetraacetylated Peptide Inhibition AlphaScreen). Settings: GST-BRD4-BD1 (aa 44-168) or GST-BRD4-BD2 (aa 333-460) with biotinylated Acetyl-Histone H4 peptide; table does not state which bromodomain.
T1 construct: fused on or other part: GST tag, fused on for capture by the AlphaLISA Glutathione Acceptor Beads
Assay type: binding
Protocol: Biological Methods BRD4-H4 tetraacetylated Peptide Inhibition AlphaScreen
Compounds are diluted in serial dilution 1:5 in assay buffer from 10 mM stock in DMSO (100 μM start concentration) in white OptiPlate-384 (PerkinElmer). A mix consisting of 15 nM GST-BRD4-BD1 protein (aa 44-168) or 150 nM GST-BRD4-BD2 (aa 333-460) and 15 nM biotinylated Acetyl-Histone H4 (LysS, 8, 12, 16) peptide is prepared in assay buffer (50 mM HEPES pH=7.4; 25 mM NaCl; 0.05% Tween 20; 0.1% bovine serum albumin (BSA); 10 mM dithiothreitol (DTT)). 6 μl of the mix is added to the compound dilutions. Subsequently, 6 μl of premixed AlphaLISA Glutathione Acceptor Beads and AlphaScreen Streptavidin Donor Beads from PerkinElmer (in assay buffer at a concentration of 10 μg/ml each) are added and the samples are incubated for 30 min at RT in the dark (shaking 300 rpm). Afterwards, the signal is measured in a PerkinElmer Envision HTS
Multilabel Reader using the AlphaScreen protocol from PerkinElmer. Each plate contains negative controls where biotinylated Acetyl-Histone H4 peptide and GST-BRD4-BD1 or GST-BRD4-BD2 are left out and replaced by assay buffer. Negative control values are entered as low basis value when using the software GraphPad Prism for calculations. Furthermore, a positive control (probe molecule JQ1+ with protein/peptide mix) is pipetted. Determination of IC50 values are carried out using GraphPad Prism 3.03 software (or updates thereof).
For Cc1noc(C)c1-c1ccc2c(c1)C1(c3ccccc3)OCCN1C2=O (centres unmarked) [Example 14, 8-(3,5-Dimethyl-isoxazol-4-yl)-9b-phenyl-2,3-dihydro-9bH-oxazolo[2,3-a]isoindol-5-one], the IC50 was 72 nM.
In the case of Cc1noc(C)c1-c1ccc2c(c1)C(O)(c1cccnc1)C(=O)N2 (centres unmarked) [Example 31, 5-(3,5-Dimethyl-isoxazol-4-yl)-3-hydroxy-3-pyridin-3-yl-1,3-dihydro-indol-2-one], the IC50 is reported as 395 nM.
Molecule Cc1noc(C)c1-c1ccc2c(c1)C(C1CCC3(CCC3)CC1)N(C)C2=O (centres unmarked) [Example 7, 5-(3,5-Dimethyl-isoxazol-4-yl)-2-methyl-3-spiro[3.5]non-7-yl-2,3-dihydro-isoindol-1-one] has an IC50 of 1090 nM.
Cc1noc(C)c1-c1ccc2c(c1)C(c1ccccc1)OC2=O (centres unmarked) [Example 13, 5-(3,5-Dimethyl-isoxazol-4-yl)-3-phenyl-3H-isobenzofuran-1-one] was tested, and the IC50 was 193 nM.
Molecule Cc1noc(C)c1-c1ccc2c(c1)[C@H](c1ccccc1)N(C)C2=O [Example 9, (S)-5-(3,5-Dimethyl-isoxazol-4-yl)-2-methyl-3-phenyl-2,3-dihydro-isoindol-1-one] has an IC50 of 14 nM.
Molecule Cc1ccccc1C1(O)C(=O)Nc2ccc(-c3c(C)noc3C)cc21 (centres unmarked) [Example 33, 5-(3,5-Dimethyl-isoxazol-4-yl)-3-hydroxy-3-o-tolyl-1,3-dihydro-indol-2-one] has an IC50 of 1060 nM.
Cc1noc(C)c1-c1ccc2c(c1)C(O)(c1ccccc1CN1CCOCC1)C(=O)N2 (centres unmarked) [Example 23, 5-(3,5-Dimethyl-isoxazol-4-yl)-3-hydroxy-3-(2-morpholin-4-ylmethyl-phenyl)-1,3-dihydro-indol-2-one] showed an IC50 of 176 nM.
For Cc1noc(C)c1-c1ccc2c(c1)C(c1ccccc1)N(C)C2=O (centres unmarked) [Example 8, 5-(3,5-Dimethyl-isoxazol-4-yl)-2-methyl-3-phenyl-2,3-dihydro-isoindol-1-one], the IC50 was 55 nM.
In the case of Cc1noc(C)c1-c1ccc2c(c1C)C(c1ccccc1)OC2=O (centres unmarked) [Example 17, 5-(3,5-Dimethyl-isoxazol-4-yl)-4-methyl-3-phenyl-3H-isobenzofuran-1-one], the IC50 is reported as 1080 nM.
For Cc1noc(C)c1-c1ccc2c(c1)C(O)(C1CCCC1)C(=O)N2 (centres unmarked) [Example 27, 3-Cyclopentyl-5-(3,5-dimethyl-isoxazol-4-yl)-3-hydroxy-1,3-dihydro-indol-2-one], the IC50 was 698 nM.
Cc1noc(C)c1-c1ccc2c(c1)C(O)(c1ccc(Cl)cc1)C(=O)N2 (centres unmarked) [Example 25, 3-(4-Chloro-phenyl)-5-(3,5-dimethyl-isoxazol-4-yl)-3-hydroxy-1,3-dihydro-indol-2-one] showed an IC50 of 295 nM.
Molecule Cc1noc(C)c1-c1ccc2c(c1)C(C)(c1ccccc1)C(=O)N2c1cccnc1 (centres unmarked) [Example 20, 5-(3,5-Dimethyl-isoxazol-4-yl)-3-methyl-3-phenyl-1-pyridin-3-yl-1,3-dihydro-indol-2-one] has an IC50 of 242 nM.
Work on Cc1noc(C)c1-c1ccc2c(c1)C(C)(c1ccccc1)N(C)C2=O (centres unmarked) [Example 10, 5-(3,5-Dimethyl-isoxazol-4-yl)-2,3-dimethyl-3-phenyl-2,3-dihydro-isoindol-1-one] yielded an IC50 of 38 nM.
For Cc1noc(C)c1-c1ccc2c(c1)[C@](O)(c1ccccc1CN1CCOCC1)C(=O)N2 [Example 24, 5-(3,5-Dimethyl-isoxazol-4-yl)-3-hydroxy-3-(2-morpholin-4-ylmethyl-phenyl)-1,3-dihydro-indol-2-one], the IC50 was 41 nM.
Cc1noc(C)c1-c1ccc2c(c1)C(O)(c1cccs1)C(=O)N2 (centres unmarked) [Example 26, 5-(3,5-Dimethyl-isoxazol-4-yl)-3-hydroxy-3-thiophen-2-yl-1,3-dihydro-indol-2-one] was tested, and the IC50 was 320 nM.
Cc1noc(C)c1-c1ccc2c(c1)C(c1ccccc1)N(CCCN(C)C)C2=O (centres unmarked) [Example 3, 2-(3-Dimethylamino-propyl)-5-(3,5-dimethyl-isoxazol-4-yl)-3-phenyl-2,3-dihydro-isoindol-1-one] showed an IC50 of 43 nM.
Cc1noc(C)c1-c1ccc2c(c1)C(c1ccccc1)N(CCN(C)C)C2=O (centres unmarked) [Example 4, 2-(2-Dimethylamino-ethyl)-5-(3,5-dimethyl-isoxazol-4-yl)-3-phenyl-2,3-dihydro-isoindol-1-one] gave an IC50 of 65 nM.
Molecule Cc1noc(C)c1-c1ccc2c(c1)[C@](O)(c1ccccc1)C(=O)N2 [Example 22, 5-(3,5-Dimethyl-isoxazol-4-yl)-3-hydroxy-3-phenyl-1,3-dihydro-indol-2-one] has an IC50 of 48 nM.
Molecule Cc1noc(C)c1-c1ccc2c(c1)C(O)(c1ccc3c(c1)OCO3)C(=O)N2 (centres unmarked) [Example 29, 3-Benzo[1,3]dioxol-5-yl-5-(3,5-dimethyl-isoxazol-4-yl)-3-hydroxy-1,3-dihydro-indol-2-one] has an IC50 of 541 nM.
Work on Cc1noc(C)c1-c1ccc2c(c1)C(O)(C1CCCCC1)C(=O)N2 (centres unmarked) [Example 30, 3-cyclohexyl-5-(3,5-dimethyl-isoxazol-4-yl)-3-hydroxy-1,3-dihydro-indol-2-one] yielded an IC50 of 196 nM.
For Cc1noc(C)c1-c1ccc2c(c1)C(c1cc(F)cc(F)c1)N(C)C2=O (centres unmarked) [Example 5, 3-(3,5-Difluoro-phenyl)-5-(3,5-dimethyl-isoxazol-4-yl)-2-methyl-2,3-dihydro-isoindol-1-one], the IC50 was 229 nM.
COc1cc(F)cc(C2c3cc(-c4c(C)noc4C)ccc3C(=O)N2C)c1 (centres unmarked) [Example 1, 5-(3,5-Dimethyl-isoxazol-4-yl)-3-(3-fluoro-5-methoxy-phenyl)-2-methyl-2,3-dihydro-isoindol-1-one] gave an IC50 of 380 nM.
Molecule Cc1noc(C)c1-c1ccc2c(c1)C(O)(c1ccc(F)c(F)c1)C(=O)N2 (centres unmarked) [Example 28, 3-(3,4-Difluoro-phenyl)-5-(3,5-dimethyl-isoxazol-4-yl)-3-hydroxy-1,3-dihydro-indol-2-one] has an IC50 of 203 nM.
In the case of Cc1noc(C)c1-c1ccc2c(c1)C(C1CCCCC1)N(C)C2=O (centres unmarked) [Example 6, 3-Cyclohexyl-5-(3,5-dimethyl-isoxazol-4-yl)-2-methyl-2,3-dihydro-isoindol-1-one], the IC50 is reported as 43 nM.
Molecule Cc1noc(C)c1-c1ccc2c(c1)C(O)(c1ccccc1)C(=O)N2 (centres unmarked) [Example 21, 5-(3,5-Dimethyl-isoxazol-4-yl)-3-hydroxy-3-phenyl-1,3-dihydro-indol-2-one] has an IC50 of 259 nM.
Cc1noc(C)c1-c1ccc2c(c1)C1(c3ccccc3)OCCCN1C2=O (centres unmarked) [Example 15, 9-(3,5-Dimethyl-isoxazol-4-yl)-10b-phenyl-3,4-dihydro-2H,10bH-[1,3]oxazino[2,3-a]isoindol-6-one] showed an IC50 of 36 nM.
In the case of Cc1noc(C)c1-c1ccc2c(c1)C(C)(c1ccccc1)C(=O)N2 (centres unmarked) [Example 18, 5-(3,5-Dimethyl-isoxazol-4-yl)-3-methyl-3-phenyl-1,3-dihydro-indol-2-one], the IC50 is reported as 54 nM.
Work on COc1c(-c2c(C)noc2C)ccc2c1C(c1ccccc1)OC2=O (centres unmarked) [Example 16, 5-(3,5-Dimethyl-isoxazol-4-yl)-4-methoxy-3-phenyl-3,1-isobenzofuran-1-one] yielded an IC50 of 350 nM.
Cc1noc(C)c1-c1ccc2c(c1)C(O)(c1ccccn1)C(=O)N2 (centres unmarked) [Example 32, 5-(3,5-Dimethyl-isoxazol-4-yl)-3-hydroxy-3-pyridin-2-yl-1,3-dihydro-indol-2-one] was tested, and the IC50 was 332 nM.
Molecule Cc1noc(C)c1-c1ccc2c(c1)C(c1ccccc1)N(C1CCN(C)CC1)C2=O (centres unmarked) [Example 2, 5-(3,5-Dimethyl-isoxazol-4-yl)-2-(1-methyl-piperidin-4-yl)-3-phenyl-2,3-dihydro-isoindol-1-one] has an IC50 of 57 nM.
For Cc1noc(C)c1-c1ccc2c(c1)C(c1ccccc1)N(C(C)C)C2=O (centres unmarked) [Example 12, 5-(3,5-Dimethyl-isoxazol-4-yl)-2-isopropyl-3-phenyl-2,3-dihydro-isoindol-1-one], the IC50 was 75 nM.
For Cc1noc(C)c1-c1ccc2c(c1)C(C)(c1ccccc1)C(=O)N2C (centres unmarked) [Example 19, 5-(3,5-Dimethyl-isoxazol-4-yl)-1,3-dimethyl-3-phenyl-1,3-dihydro-indol-2-one], the IC50 was 275 nM.
Molecule Cc1noc(C)c1-c1ccc2c(c1)C(O)(C1CCOCC1)C(=O)N2 (centres unmarked) [Example 34, 5-(3,5-Dimethyl-isoxazol-4-yl)-3-hydroxy-3-(tetrahydro-pyran-4-yl)-1,3-dihydro-indol-2-one] has an IC50 of 1570 nM.
Cc1cncc(C2(O)C(=O)Nc3ccc(-c4c(C)noc4C)cc32)c1 (centres unmarked) [Example 35, 5-(3,5-Dimethyl-isoxazol-4-yl)-3-hydroxy-3-(5-methyl-pyridin-3-yl)-1,3-dihydro-indol-2-one] gave an IC50 of 1040 nM.
Cc1cc(-c2c(C)noc2C)cc2c1C(=O)N(C)C2c1ccccc1 (centres unmarked) [Example 11, 5-(3,5-Dimethyl-isoxazol-4-yl)-2,7-dimethyl-3-phenyl-2,3-dihydro-isoindol-1-one] was tested, and the IC50 was 2490 nM.
